According to US20110201815A1, “FUSED HETEROCYCLIC DERIVATIVE AND USE THEREOF FOR MEDICAL PURPOSES” (KISSEI PHARMACEUTICAL CO., LTD., priority 2008, published 2011):

target: T1, Xanthine oxidase (from bovine milk, Sigma) (Bos taurus, UniProt P80457); assay: Xanthine oxidase inhibitory activity; assay type: biochemical; details: xanthine 200 μM added, 10 minutes at room temperature, absorbance at 290 nm
T1 construct: Xanthine oxidase (from bovine milk, Sigma); purchased Sigma; host or cells: bovine milk
Protocol: Test compounds were dissolved in DMSO (Wako) at 40 mM concentration and then diluted to intended concentrations with phosphate-buffered saline (PBS).
Xanthine oxidase (from bovine milk, Sigma) was prepared with phosphate-buffered saline (PBS) at 0.02 units/mL, and then the solution was added to 96 well plates at 50 μL/well. In addition, test compounds diluted with PBS were added at 50 μL/well. Xanthine (Wako) at 200 μM prepared with PBS was added at 100 μL/well, and the reaction was measured for 10 minutes at room temperature. […] The absorbance under a condition without xanthine is 0%, and control without test compounds is 100%. Fifty % inhibitory concentration (IC50) of test compounds was calculated (Table 5). Ex. No in the table indicates example number.

T1 sequence (P80457 whole entry): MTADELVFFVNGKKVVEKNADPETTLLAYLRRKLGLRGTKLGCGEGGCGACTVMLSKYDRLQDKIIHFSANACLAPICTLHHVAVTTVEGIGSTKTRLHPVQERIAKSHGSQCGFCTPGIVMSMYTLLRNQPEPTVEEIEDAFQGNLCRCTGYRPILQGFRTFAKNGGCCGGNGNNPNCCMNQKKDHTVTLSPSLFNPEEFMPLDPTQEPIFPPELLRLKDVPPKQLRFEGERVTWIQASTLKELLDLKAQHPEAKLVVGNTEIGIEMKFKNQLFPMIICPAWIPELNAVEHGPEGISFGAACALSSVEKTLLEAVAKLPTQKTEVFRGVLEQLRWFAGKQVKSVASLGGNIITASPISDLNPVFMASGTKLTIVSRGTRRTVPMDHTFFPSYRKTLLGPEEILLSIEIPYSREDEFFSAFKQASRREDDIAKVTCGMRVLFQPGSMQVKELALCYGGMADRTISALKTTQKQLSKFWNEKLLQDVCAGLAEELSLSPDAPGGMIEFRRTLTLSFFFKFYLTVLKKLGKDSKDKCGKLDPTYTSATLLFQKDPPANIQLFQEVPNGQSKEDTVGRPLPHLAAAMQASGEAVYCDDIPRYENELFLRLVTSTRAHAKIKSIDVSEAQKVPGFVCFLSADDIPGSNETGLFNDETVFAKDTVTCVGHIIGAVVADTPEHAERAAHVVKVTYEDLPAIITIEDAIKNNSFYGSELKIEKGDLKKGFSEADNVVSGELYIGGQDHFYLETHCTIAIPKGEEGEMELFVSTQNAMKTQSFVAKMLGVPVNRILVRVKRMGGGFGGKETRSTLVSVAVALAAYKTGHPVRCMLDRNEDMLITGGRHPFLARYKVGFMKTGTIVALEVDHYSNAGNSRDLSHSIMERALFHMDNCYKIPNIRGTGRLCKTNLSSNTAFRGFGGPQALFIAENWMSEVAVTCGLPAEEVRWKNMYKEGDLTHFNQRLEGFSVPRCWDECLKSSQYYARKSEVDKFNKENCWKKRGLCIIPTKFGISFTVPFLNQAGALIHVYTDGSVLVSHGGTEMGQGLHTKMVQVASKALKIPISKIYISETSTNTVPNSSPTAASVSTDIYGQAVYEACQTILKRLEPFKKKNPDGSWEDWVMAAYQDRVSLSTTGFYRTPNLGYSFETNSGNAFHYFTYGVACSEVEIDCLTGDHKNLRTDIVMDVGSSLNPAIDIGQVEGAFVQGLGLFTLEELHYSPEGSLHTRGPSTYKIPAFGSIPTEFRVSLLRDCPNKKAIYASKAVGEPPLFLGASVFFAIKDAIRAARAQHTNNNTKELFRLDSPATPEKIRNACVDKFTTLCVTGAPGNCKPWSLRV

Structure (SMILES) | IC50
Cc1nc(-c2cc(C#N)c3c(c2)c(C)cn3C)sc1C(=O)O [Example 1, 2-(7-Cyano-1,3-dimethyl-1H-indole-5-yl)-4-methylthiazole-5-carboxylic acid] | 19 nM
Cn1ccc2cc(-c3cc(C(=O)O)ccn3)cc([N+](=O)[O-])c21 [Example 2, 2-(1-Methyl-7-nitro-1H-indole-5-yl) isonicotinic acid] | 48 nM
Cc1nc(-c2cc([N+](=O)[O-])c3c(ccn3C)c2)sc1C(=O)O [Example 3, 4-Methyl-2-(1-methyl-7-nitro-1H-indole-5-yl) thiazole-5-carboxylic acid] | 8 nM
O=C(O)c1ccnc(-c2cc([N+](=O)[O-])c3occc3c2)c1 [Example 4, 2-(7-Nitrobenzofuran-5-yl) isonicotinic acid] | 254 nM
Cc1nc(-c2cc(C#N)c3c(c2)c(C)cn3CC(C)C)sc1C(=O)O [Example 7] | 31 nM
Cc1nc(-c2cc(C#N)c3c(c2)c(C)cn3C(C)C)sc1C(=O)O [Example 8] | 10 nM
CC(C)Cn1ccc2cc(-c3cc(C(=O)O)ccn3)cc([N+](=O)[O-])c21 [Example 9] | 13 nM
COCCn1ccc2cc(-c3cc(C(=O)O)ccn3)cc([N+](=O)[O-])c21 [Example 10] | 114 nM
N#Cc1cc(-c2cc(C(=O)O)ccn2)cc2cc[nH]c12 [Example 11, 2-(7-Cyano-1H-indole-5-yl) isonicotinic acid] | 12 nM
Cn1ccc2cc(-c3cc(C(=O)O)ccn3)cc(C#N)c21 [Example 12, 2-(7-Cyano-1-methyl-1H-indole-5-yl) isonicotinic acid] | 17 nM
Cc1nc(-c2cc(C#N)c3[nH]ccc3c2)sc1C(=O)O [Example 13] | 7 nM

target: T2, human URAT1 (Homo sapiens, UniProt Q96S37); assay: Inhibitory activity of uric acid transport with human URAT1 expressing cells; assay type: cell-based; details: COS-7; concentration of 100 μM; 14C-uric acid uptake in COS7 cells transiently expressing human URAT1, 20 μM uric acid, 5 minutes; read-out: Percent inhibition
T2 construct: expressed in transfected cells; host or cells: COS7 cells (RIKEN CELL BANK RCB0539), transient transfection with pcDNA3.1
T2 sequence (Q96S37 1-553): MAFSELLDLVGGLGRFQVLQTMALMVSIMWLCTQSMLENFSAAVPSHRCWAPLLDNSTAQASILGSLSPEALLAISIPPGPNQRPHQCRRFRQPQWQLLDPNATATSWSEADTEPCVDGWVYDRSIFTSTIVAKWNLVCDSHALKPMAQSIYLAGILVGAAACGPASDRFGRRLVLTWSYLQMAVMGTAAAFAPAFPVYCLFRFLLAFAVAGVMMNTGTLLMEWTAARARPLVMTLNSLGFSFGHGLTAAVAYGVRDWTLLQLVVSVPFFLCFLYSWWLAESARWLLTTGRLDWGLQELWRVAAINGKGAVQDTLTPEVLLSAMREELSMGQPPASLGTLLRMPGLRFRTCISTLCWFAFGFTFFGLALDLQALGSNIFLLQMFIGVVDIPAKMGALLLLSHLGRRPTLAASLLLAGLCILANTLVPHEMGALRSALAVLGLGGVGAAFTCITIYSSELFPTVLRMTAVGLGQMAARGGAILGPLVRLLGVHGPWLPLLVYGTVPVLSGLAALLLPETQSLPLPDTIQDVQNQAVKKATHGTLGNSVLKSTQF
Protocol: Full length human URAT1 cDNA (NCBI Accession No. NM_144585) was subcloned into expression vector, pcDNA3.1 (Invitrogen). Human URAT1 expression vector was transfected into COS7 cells (RIKEN CELL BANK RCB0539) using Lipofectamine 2000 (Invitrogen). COS7 cells were seeded in collagen-coated 24 well plates (Japan Becton Dickinson) at 90-95% confluency and cultured in D-MEM culture medium (Invitrogen) containing 10% fetal bovine serum (Sanko Junyaku) for 2 hours at 37° C. under the condition of 5% CO2. For 1 well, 2 μL of Lipofectamine 2000 was diluted in 50 μL of OPTI-MEM (Invitrogen) and allowed to stand at room temperature for 7 minutes (hereinafter referred to as Lipo2000-OPTI). For 1 well, 0.8 μg of human URAT1 expression vector was diluted in 50 μL of OPTI-MEM (Invitrogen) and combined gently with Lipo2000-OPTI. After standing at room temperature for 25 minutes, the mixture was added to COS7 cells at 100 μL/well. […]
All tests were performed on hot-plate at 37° C. […] After mixing, the radioactivity was counted in a liquid scintillation counter (PerkinElmer). The radioactivity in COS7 cells not transfected with URAT1 expression vector was also counted under the same condition as control. […]
A: Radioactivity in control B: Radioactivity in the case of addition of test compounds C: Radioactivity in COS7 cells not transfected with URAT1 expression vector

Structure (SMILES) | inhibition at 100 µM
Cn1ccc2cc(-c3cc(C(=O)O)ccn3)cc([N+](=O)[O-])c21 [Example 2, 2-(1-Methyl-7-nitro-1H-indole-5-yl) isonicotinic acid] | > 80%
